Measurements as given in US20230346816A1, “COMPOUNDS AND METHODS FOR TREATING VIRAL INFECTION” (priority 2020, published 2023).

How the values were obtained:
[1] = tested on: IL-6; experiment: Gene expression analysis (quantitative PCR) of IL-6 in primary human chondrocytes; format: cell-based; conditions: IL-1β, 1 or 10 mM, 24 hrs, FIG. 3
Experimental: (§1) Normal cartilage were obtained from autopsy services at the hospital of University of Virginia, approved by the Institutional Review Board. Articular cartilage were harvested from the femoral condyles and the tibial plateaus. Cartilage shavings were harvested at the operation room and placed in tissue culture medium (DMEM, 10% FBS, penicillin, streptomycin), and shipped to the laboratory at 4° C. Chondrocytes were isolated by incubation of the cartilage fragments with 0.01% collagenase NB4 (Fisher Scientific, Catalog No. 50-204-1257) for 4 hrs at 37° C. Cells were maintained in continuous monolayer cultures in DMEM containing 10% FBS. Experiments were performed with cells less than 3 passages. When necessary, trypsin were used for cell passage.
(§2) Cells, as prepared in the MATERIALS section, were seeded in a 24-well plate (3×10^5/well) and incubated with culture medium overnight. Cells were then treated with Compound 2 at various concentrations in DMEM containing 2% FBS (1 or 10 mM) for 24 hrs. […] Synthesis of cDNA from total RNA and the quantitative PCR were carried out by using the iscript™ cDNA synthesis kit and the iQ™ SYBR Green Supermix kit (Bio-Rad Laboratories, Hercules, CA), respectively. […] The threshold cycle (CT) value were calculated from amplification plots. Data were analyzed using the 2-ΔΔCT method with 18s rRNA serving as the reference. […]

[2] = tested on: COX-2; experiment: Gene expression analysis (quantitative PCR) of COX-2 in primary human chondrocytes; format: cell-based; conditions: IL-1β, 1 or 10 mM, 24 hrs, FIG. 4
Experimental: as §1, §2

[3] = tested on: COVID-19; experiment: Prospective observational cohort study of NAG in hospitalized COVID-19 patients vs retrospective control arm; format: in vivo
[4] = NAG (n = 48) vs control (n = 100), univariate
[5] = multiple logistic regression, NAG (ref = control)

CC(=O)N[C@H]1[C@H](O)O[C@H](C)C[C@@H]1O [Cpd 2, 2-(acetylamino)-2,4,6-trideoxy-β-D-glucopyranose]
Expression of pro-inflammatory gene IL-6 [1]: dose-dependent inhibition | Expression of pro-inflammatory gene COX-2 [2]: dose-dependent inhibition

CC(=O)N[C@@H]1[C@@H](O)[C@H](O)[C@@H](CO)O[C@H]1O [NAG, N-((2R,3R,4R,5S,6R)-2,4,5-trihydroxy-6-(hydroxymethyl)-tetrahydro-2H-pyran-3-yl)acetamide]
Intubation, % ([3]; 700 mg NAG every 12 hours plus standard of care, NAG group n = 48): (16.7%) | ICU admission, odds ratio [3, 4]: 0.53 | Mortality, odds ratio [3, 4]: 0.37 | Poor clinical outcome, odds ratio [3, 4]: 0.30 | Intubation, odds ratio ([3]; NAG (n = 48) vs control (n = 100), univariate, Fisher's exact test): 0.60 | Hospital LOS, Hodges-Lehmann difference ([3]; NAG (n = 48) vs control (n = 100), univariate, Mann-Whitney U test): 0.0 | ICU admission, % ([3]; NAG group n = 48): (22.9%) | Poor clinical outcome (combined death/hospice initiation), % ([3]; NAG group n = 48): (12.5%) | Hospital LOS, median ([3]; NAG group n = 48, median (IQR) [range]): 7 | Hospice initiation, % ([3]; excludes patients that died, NAG n = 42): (0%) | Hospice initiation, odds ratio ([3]; excludes patients that died, NAG n = 42 vs control n = 72, univariate): 0.00 | ICU admission, odds ratio (multivariate) [3, 5]: 0.32 | Poor clinical outcome rate, odds ratio (multivariate) [3, 5]: 0.30 | Hospital length of stay, β-coefficient ([3]; multivariate linear regression, NAG (ref = control)): −4.27 | ICU LOS, median ([3]; only patients admitted to the ICU, NAG n = 10): 2.5 | ICU LOS, Hodges-Lehmann difference ([3]; only patients admitted to the ICU, NAG n = 10 vs control n = 36, univariate): 4.0 | Duration of oxygen, Hodges-Lehmann difference ([3]; only patients that required oxygen support, NAG n = 46 vs control n = 86, univariate): 0.0 days | Difference between control and NAG groups for intubation rates, hospital LOS, ICU admission, ICU LOS, duration of oxygen use, or hospice initiation ([3]; univariate analysis): no significant differences
